Reference: patent US8338445B2, “Crystal form of cabergoline” (Lek Pharmaceuticals D.D., priority 2007, dated 2012)

Columns and labels:
[1] = Residual solvents after comparable drying of crystal forms; type: physicochemical; conditions: after drying at 35° C. at 5 mBar for 48 h; both forms isolated from same solvent mixture
Description: Cabergoline from L isolated by the process of the invention can be washed by cold aliphatic hydrocarbons or digesting previously isolated material in a suspension of aliphatic hydrocarbons preferably heptane to remove impurities and finally dried in vacuo at temperature from 20 to 80° C., preferably from 30 to 50° C., preferably 30 to 40° C. to remove residual solvents. […] Form L and form I are isolated from the same solvent mixture, but form I is captured as an early precipitate as described in Example B and contains below 5% of form L. Solvents are easier removed if cabergoline is in the form of needles.
6.1 g of cabergoline obtained in example 1 were dissolved in 12 ml of 2-chlorotoluene by agitating at room temperature. The solution was cooled down to −30° C. while stirring. The gel-like material was formed after 60 minutes. Furthermore 150 ml of n-heptane were added and let stirring 1 hour at −20° C. Further the solvent was exchanged with 100 ml of fresh n-heptane, precooled to −20° C. and let stirring 1 hour at −20° C. Afterwards the temperature was slowly raising to 0° C. (0.5 K/min) and small samples were analyzed.

[2] = Particle size distribution by the Malvern method; type: physicochemical
Description: Physically pure cabergoline form L is isolated in a form of fine needles what is shown in the SEM picture. Average shorter axis of the needles is below 10 μm. Milling of cabergoline form L isolated by the process of the invention by a hammer mill gives particle size distribution d 0.9 below 10 μm.
6.1 g of cabergoline obtained in Example 1 were dissolved in 12 ml of 2-chlorotoluene by agitating at room temperature. The solution was cooled down to −30° C. while stirring. The gel-like material was formed after 60 minutes. Furthermore 150 ml of n-heptane were added and let stirring 1 hour at −20° C. Further the solvent was exchanged with 100 ml of fresh n-heptane, precooled to −20° C. and let stirring 1 hour at −20° C. Afterwards the temperature was raised to 10° C. (0.5 K/min) and further stirred for 1 hour, The temperature was raised to 20° C. (0.5 K/min) followed by stirring for 5 hour. The obtained dense suspension was filtered and washed with 50 ml of n-heptane and dried at 40° C. and 5 mbar for 24 hours. The obtained needle-like product (5.5 g) was identified as cabergoline form L. Particle size distribution of the product of Example 2 is the following: d 0.1=0.4 um; d 0.5=4.2 um; d 0.9=33 um.
Particle size distribution was measured by the Malvern method.

Row | residual solvent 2-Chlorotoluene [1] | residual solvent Heptane [1] | particle size distribution d 0.9 ([2]; after milling by a hammer mill) | Particle size distribution d 0.1 ([2]; product of Example 2, unmilled) | Particle size distribution d 0.5 ([2]; product of Example 2, unmilled) | particle size distribution d 0.9 ([2]; product of Example 2, unmilled) | SMILES
1 | 333 ppm | 764 ppm | – | – | – | – | C=CCN1C[C@H](C(=O)N(CCCN(C)C)C(=O)NCC)C[C@@H]2c3cccc4[nH]cc(c34)C[C@H]21 [Cabergoline form I, 1-((6-allylergolin-8β-yl)-carbonyl)-1-(3-dimethylaminopropyl)-3-ethylurea, reference compound]
2 | 236 ppm | 186 ppm | below 10 μm | 0.4 um | 4.2 um | 33 um | C=CCN1C[C@H](C(=O)N(CCCN(C)C)C(=O)NCC)C[C@@H]2c3cccc4[nH]cc(c34)C[C@H]21 [Cabergoline form L, 1-((6-allylergolin-8β-yl)-carbonyl)-1-(3-dimethylaminopropyl)-3-ethylurea]
